{"source": "paper PMC11448502", "about": "“Cryo-EM structures of the human P2X1 receptor reveal subtype-specific architecture and antagonism by supramolecular ligand-binding” (Nature Communications, 2024)", "test_in_all_cases": "NF449 inhibition dose response (IC50), TEVC in oocytes", "assay_type_in_all_cases": "cell-based", "key": {"hP2X1 WT": {"target": "T1, hP2X1 WT (Homo sapiens, UniProt P51575)", "T1 construct": "hP2X1 mRNA that was made from linearized full-length wild-type or mutant pcDNA 3.1x; expressed in transfected cells; host or cells: Xenopus laevis oocytes (mRNA injection)", "T1 sequence (P51575 1-399)": "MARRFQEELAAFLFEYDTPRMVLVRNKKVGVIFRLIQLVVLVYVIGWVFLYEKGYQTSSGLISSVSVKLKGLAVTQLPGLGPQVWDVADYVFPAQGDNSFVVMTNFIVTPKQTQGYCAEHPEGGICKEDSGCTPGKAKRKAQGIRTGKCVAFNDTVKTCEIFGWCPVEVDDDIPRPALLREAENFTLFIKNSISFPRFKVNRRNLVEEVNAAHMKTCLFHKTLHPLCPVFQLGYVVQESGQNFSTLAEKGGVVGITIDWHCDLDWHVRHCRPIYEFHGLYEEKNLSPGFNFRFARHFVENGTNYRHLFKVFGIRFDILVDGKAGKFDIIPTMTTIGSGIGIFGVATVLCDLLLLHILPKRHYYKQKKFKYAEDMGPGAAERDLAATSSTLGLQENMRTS", "experimental": "(§1) Oocytes were purchased defolliculated from Ecocyte Bioscience in Barth’s Solution (88 mM NaCl, 1 mM KCl, 0.82 mM MgSO4, 0.33 mM Ca(NO3)2, 0.41 mM CaCl2, 2.4 mM NaHCO3, 5 mM Tris-HCl) supplemented with penicillin (100 U/mL) and streptomycin (100 µg/mL). Xenopus laevis oocytes were then injected with 50 nL of 100 ng/μL hP2X1 mRNA that was made from linearized full-length wild-type or mutant pcDNA 3.1x according to the protocol provided in the mMessage mMachine kit (Invitrogen). Injected oocytes were allowed to express for ~20 hours at 18 °C before recording was performed.\n(§2) Data acquisition was performed using the Oocyte Clamp OC-725C amplifier and pClamp 8.2 software. Buffers were applied using a gravity fed RSC-200 Rapid Solution Changer that flows at ~5 mL/min. All experiments use Sutter filamented glass 10 cm in length with an inner diameter of 0.69 mm and an outer diameter of 1.2 mm to impale oocytes and clamp the holding voltage at −60 mV. Experiments were recorded in buffer containing 10 mM HEPES (pH 7.4), 140 mM NaCl, 5 mM KCl, 2 mM CaCl2, 2 mM MgCl2, and 10 mM glucose.\n(§3) To test a dilution series of an antagonist at discrete concentrations, 10 µM ATP (2 mM ATP for K309A only) was first applied to evoke an initial maximum current. The oocyte was then washed with buffer for one minute, followed by one minute application of an antagonist test-concentration, and concluded by co-application of the same test concentration with 10 µM ATP (2 mM ATP for K309A). The antagonized signal was then normalized against the initial ATP excitatory signal. Each test concentration was performed in triplicate across different oocytes. The data was then fit to a nonlinear regression named “[inhibitor] vs. response – Variable slope (four parameters)” in Prism 9 to produce a sigmoidal curve and afford an IC50 value. Each singular condition was used to generate an average which is reported plus or minus its standard deviation between three discrete trials."}, "hP2X1 K309A": {"target": "T2, hP2X1 K309A (Homo sapiens, UniProt P51575, K309A)", "T2 construct": "hP2X1 mRNA that was made from linearized full-length wild-type or mutant pcDNA 3.1x; expressed in transfected cells; host or cells: Xenopus laevis oocytes (mRNA injection)", "T2 sequence (P51575 1-399 K309A)": "T1 sequence (P51575 1-399) with K309A", "conditions": "for Normalized Current: hP2X1 K309A", "experimental": "as §1, §2, §3"}, "hP2X1 K136A/R139A": {"target": "T3, hP2X1 K136A/R139A (Homo sapiens, UniProt P51575, K136A/R139A)", "T3 construct": "hP2X1 mRNA that was made from linearized full-length wild-type or mutant pcDNA 3.1x; expressed in transfected cells; host or cells: Xenopus laevis oocytes (mRNA injection)", "T3 sequence (P51575 1-399 K136A/R139A)": "T1 sequence (P51575 1-399) with K136A, R139A", "conditions": "for Normalized Current: hP2X1 K136A/R139A", "experimental": "as §1, §2, §3"}, "hP2X1 N184A": {"target": "T4, hP2X1 N184A (Homo sapiens, UniProt P51575, N184A)", "T4 construct": "hP2X1 mRNA that was made from linearized full-length wild-type or mutant pcDNA 3.1x; expressed in transfected cells; host or cells: Xenopus laevis oocytes (mRNA injection)", "T4 sequence (P51575 1-399 N184A)": "T1 sequence (P51575 1-399) with N184A", "conditions": "for Normalized Current: hP2X1 N184A", "experimental": "as §1, §2, §3"}}, "note": "Substitutions are numbered along the chain they refer to. Where “and” joins values, the source holds several entries; their conditions need not be identical. Equal entries are not always repeated."}
{"smiles": "O=C(Nc1cc(C(=O)Nc2ccc(S(=O)(=O)O)cc2S(=O)(=O)O)cc(C(=O)Nc2ccc(S(=O)(=O)O)cc2S(=O)(=O)O)c1)Nc1cc(C(=O)Nc2ccc(S(=O)(=O)O)cc2S(=O)(=O)O)cc(C(=O)Nc2ccc(S(=O)(=O)O)cc2S(=O)(=O)O)c1", "note": "[NF449, 4,4’,4”,4’’’-(carbonylbis(imino-5,1,3-benzenetriylbis(carbonylimino)))tetrakis-benzene-1,3-disulfonic acid]", "values": [{"measurement": "Normalized Current", "setting": "hP2X1 WT; [NF449] 1.600E-10 M", "result": "0.9675 and 0.945 and 0.9562"}, {"measurement": "Normalized Current", "setting": "hP2X1 WT; [NF449] 3.200E-11 M", "result": "1.007 and 0.9213 and 1.004"}, {"measurement": "Normalized Current", "setting": "hP2X1 WT; [NF449] 6.400E-12 M", "result": "1.049 and 0.9637 and 0.9878"}, {"measurement": "Normalized Current", "setting": "hP2X1 WT; [NF449] 8.000E-10 M", "result": "0.5214 and 0.4548 and 0.5008"}, {"measurement": "reduction in inhibitory potency (IC50) of NF449", "setting": "hP2X1 K309A; hP2X1 K309A vs wild-type", "result": 5, "unit": "fold"}, {"measurement": "Normalized Current", "setting": "hP2X1 K309A; [NF449] 1.600E-09 M", "result": "0.804 and 0.6904 and 0.632"}, {"measurement": "Normalized Current", "setting": "hP2X1 K309A; [NF449] 3.200E-10 M", "result": "1.021 and 0.9283 and 0.8888"}, {"measurement": "Normalized Current", "setting": "hP2X1 K309A; [NF449] 6.400E-11 M", "result": "1.062 and 1.037 and 0.9009"}, {"measurement": "Normalized Current", "setting": "hP2X1 K309A; [NF449] 8.000E-09 M", "result": "0.3679 and 0.3618 and 0.2758"}, {"measurement": "decrease in inhibitory potency of NF449", "setting": "hP2X1 K136A/R139A; hP2X1 K136A/R139A vs wild-type", "result": 990, "unit": "fold"}, {"measurement": "Normalized Current", "setting": "hP2X1 K136A/R139A; [NF449] 1.000E-06 M", "result": "0.4929 and 0.4694 and 0.363"}, {"measurement": "Normalized Current", "setting": "hP2X1 K136A/R139A; [NF449] 2.000E-07 M", "result": "0.8009 and 0.7536 and 0.7046"}, {"measurement": "Normalized Current", "setting": "hP2X1 K136A/R139A; [NF449] 4.000E-08 M", "result": "1.069 and 1.018 and 0.8793"}, {"measurement": "Normalized Current", "setting": "hP2X1 K136A/R139A; [NF449] 6.246E-06 M", "result": "0.148 and 0.1446 and 0.1086"}, {"measurement": "Normalized Current", "setting": "hP2X1 K136A/R139A; [NF449] 8.000E-09 M", "result": "1.104 and 1.01 and 0.886"}, {"measurement": "reduction in inhibitory potency of NF449", "setting": "hP2X1 N184A; hP2X1 N184A vs wild-type", "result": "~ 6 fold"}, {"measurement": "Normalized Current", "setting": "hP2X1 N184A; [NF449] 1.280E-11 M", "result": "1.058 and 0.9967 and 0.9456"}, {"measurement": "Normalized Current", "setting": "hP2X1 N184A; [NF449] 1.600E-09 M", "result": "0.7543 and 0.7296"}, {"measurement": "Normalized Current", "setting": "hP2X1 N184A; [NF449] 3.200E-10 M", "result": "0.9687 and 0.7936 and 0.7686"}, {"measurement": "Normalized Current", "setting": "hP2X1 N184A; [NF449] 4.000E-08 M", "result": "0.04235 and 0.03835 and 0.03234"}, {"measurement": "Normalized Current", "setting": "hP2X1 N184A; [NF449] 6.400E-11 M", "result": "0.9352 and 0.9156 and 0.8436"}, {"measurement": "Normalized Current", "setting": "hP2X1 N184A; [NF449] 8.000E-09 M", "result": "0.4048 and 0.3885 and 0.3164"}]}
